In patent publication US9776972B2, “Pyrazole derivatives as arginine methyltransferase inhibitors and uses thereof” (priority 2013, dated 2017):
Like-named read-outs stand apart in the source and are kept apart here.

Experiments:
human PRMT8 = human PRMT8 (Homo sapiens, UniProt Q9NR22); assay: PRMT8 Biochemical Assay (3H-SAM Flashplate, peptide substrate)
From the text: S-adenosylmethionine (SAM), S-adenosylhomocysteine (SAH), bicine, Tween20, dimethylsulfoxide (DMSO), bovine skin gelatin (BSG), isopropyl-β-D-thiogalactopyranoside (IPTG), and Tris(2-carboxyethyl)phosphine hydrochloride solution (TCEP) were purchased from Sigma-Aldrich at the highest level of purity possible. ^3H-SAM was purchase from American Radiolabeled Chemicals with a specific activity of 80 Ci/mmol. 384-well streptavidin Flashplates were purchased from PerkinElmer.
Peptide representative of human histone H4 residues 31-45 was synthesized with an N-terminal linker-affinity tag motif and a C-terminal amide cap by 21st Century Biochemicals.
E. coli (BL21(DE3) Gold, Stratagene) made competent by the CaCl2 method were transformed with the PRMT8 construct and ampicillin selection. Protein over-expression was accomplished by growing the PRMT8 expressing E. coli clone and inducing expression with 0.3 mM IPTG at 16° C. The culture was grown for 12 hours, harvested by centrifugation, and stored at −80° C. for purification.
GST-tagged PRMT8 was eluted with 50 mM Tris, 2 mM glutathione, pH 7.8. Pooled fractions were cleaved by thrombin (10 U) and dialysed in buffer A. GST was removed by reloading the cleaved protein sample onto glutathione sepharose column and PRMT8 was collected in the flow-through fractions. PRMT8 was purified further by ceramic hydroxyapatite chromatography. The column was washed with 50 mM phosphate buffer, 100 mM NaCl, 5% glycerol, 5 mM β-mercaptoethanol, pH 7.8 and PRMT8 was eluted by 100 mM phosphate in the same buffer. Protein was concentrated and buffer was exchanged to 50 mM Tris, 300 mM NaCl, 10% glycerol, 5 mM β-mercaptoethanol, pH 7.8 by ultrafiltration.
General Procedure for PRMT8 Enzyme Assays on Peptide Substrates.
The assays were all performed in a buffer consisting of 20 mM Bicine (pH=7.6), 1 mM TCEP, 0.005% BSG, and 0.002% Tween 20, prepared on the day of use. […] DMSO (1 ul) was added to Columns 11, 12, 23, 24, rows A-H for the maximum signal control and 1 ul of SAH, a known product and inhibitor of PRMT8, was added to columns 11, 12, 23, 24, rows I-P for the minimum signal control. A cocktail (40 ul) containing the PRMT8 enzyme was added by Multidrop Combi (Thermo-Fisher). The compounds were allowed to incubate with PRMT8 for 30 min at room temperature, then a cocktail (10 ul) containing ^3H-SAM and peptide was added to initiate the reaction (final volume=51 ul). […] The assays were stopped by the addition of non-radiolabeled SAM (10 ul) to a final concentration of 400 uM, which dilutes the ^3H-SAM to a level where its incorporation into the peptide substrate is no longer detectable. 50 ul of the reaction in the 384-well polypropylene plate was then transferred to a 384-well Flashplate and the biotinylated peptides were allowed to bind to the streptavidin surface for at least 1 hour before being washed once with 0.1% Tween20 in a Biotek ELx405 plate washer. The plates were then read in a PerkinElmer TopCount plate reader to measure the quantity of ^3H-labeled peptide bound to the Flashplate surface, measured as disintegrations per minute (dpm) or alternatively, referred to as counts per minute (cpm).
Where dpm=disintegrations per minute, cmpd=signal in assay well, and min and max are the respective minimum and maximum signal controls.
Where top and bottom are the normally allowed to float, but may be fixed at 100 or 0 respectively in a 3-parameter fit. The Hill Coefficient normally allowed to float but may also be fixed at 1 in a 3-parameter fit. Y is the % inhibition and X is the compound concentration.

[1] = test system: mono-methyl arginine in RKO cells; assay: RKO Methylation Assay, In Cell Western (ICW) for mono-methyl arginine and DNA content; assay type: cell-based; conditions: Homo sapiens, RKO, 72 h
Method in brief: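 RKO cells treated with compound for 72 hours at 37 °C, then methanol-fixed and stained overnight at 4 °C with anti-mono-methyl arginine antibody, plus DRAQ5 for DNA. Signal ratio from 700 and 800 nm infrared scans normalized to DMSO (minimum) and 20 μM reference compound (maximum); EC30 from triplicate curves.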

[2] = single experiment or average of multiple experiments
[3] = RKO cells, 72 hours, mono-methyl arginine, percent activation, single experiment or average of multiple experiments, read-out: EC30 (In Cell Western data, Numerical)
[4] = RKO cells, 72 hours, mono-methyl arginine, percent activation, class symbols, read-out: EC30 (In Cell Western data)

Chain of human PRMT8 (Q9NR22 whole entry): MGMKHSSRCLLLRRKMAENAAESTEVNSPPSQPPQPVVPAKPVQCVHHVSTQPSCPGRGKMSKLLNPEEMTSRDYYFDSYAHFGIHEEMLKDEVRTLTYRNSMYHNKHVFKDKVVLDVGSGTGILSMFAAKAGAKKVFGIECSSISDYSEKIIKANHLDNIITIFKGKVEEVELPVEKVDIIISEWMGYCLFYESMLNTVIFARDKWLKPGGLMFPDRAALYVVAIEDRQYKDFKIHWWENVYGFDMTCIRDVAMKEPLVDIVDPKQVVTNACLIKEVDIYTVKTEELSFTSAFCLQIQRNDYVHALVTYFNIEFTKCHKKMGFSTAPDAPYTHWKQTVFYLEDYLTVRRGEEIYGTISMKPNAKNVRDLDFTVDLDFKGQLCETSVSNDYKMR

IC50 (human PRMT8; [2]) [nM]	IC50 (human PRMT8) [nM]	Compound	EC30 [1, 3] [µM]	EC30 [1, 4] [µM]	EC30 ([1]; read-out: EC30 (In Cell Western data)) [µM]	EC30 ([1]; read-out: EC30 (In Cell Western data, Numerical, μM)) [µM]
42.8	< 100	CNCCN(C)Cc1c[nH]nc1-c1ccc(OC2COC2)cc1 [Compound 283]	0.379	< 3		
14.2	< 100	CNCCN(C)Cc1c[nH]nc1-c1ccc(OCC2CC2)cc1 [Compound 288]	0.076	< 3		
46	< 100	CNCCN(C)Cc1c[nH]nc1-c1ccc(OCCOC)cc1 [Compound 289]	0.419	< 3		
28	< 100	CNCCN(C)Cc1c[nH]nc1-c1ccc(OC2CC2)cc1 [Compound 293]	0.336	< 3		
55	< 100	CNCCN(C)Cc1c[nH]nc1-c1ccc(OC2CCC(O)CC2)cc1 (centres unmarked) [Compound 299]	0.877	< 3		
22.4	< 100	CNCCN(C)Cc1c[nH]nc1-c1ccc(OC2CCC2)cc1 [Compound 304]	0.155	< 3		
18.5	< 100	CNCCN(C)Cc1c[nH]nc1-c1ccc(OCC(C)C)cc1 [Compound 306]	0.1	< 3		
14	< 100	CNCCN(C)Cc1c[nH]nc1-c1ccc(OCC2CCC2)cc1 [Compound 307]	0.109	< 3		
14.1	< 100	CC[C@@H](C)Oc1ccc(-c2n[nH]cc2CN(C)CCNC)cc1 [Compound 308]	0.065	< 3		
13	< 100	CC[C@H](C)Oc1ccc(-c2n[nH]cc2CN(C)CCNC)cc1 [Compound 309]	0.024	< 3		
108	101 to 1000	CNCCN(C)Cc1c[nH]nc1-c1ccc(OC2CC(OC)C2)cc1 (centres unmarked) [Compound 315]	0.843	< 3		

The next lines start with the molecule.

Compound	IC50 (human PRMT8; [2]) [nM]	IC50 (human PRMT8) [nM]	EC30 [1, 3] [µM]	EC30 [1, 4] [µM]	EC30 ([1]; read-out: EC30 (In Cell Western data)) [µM]	EC30 ([1]; read-out: EC30 (In Cell Western data, Numerical, μM)) [µM]
COc1cc(-c2n[nH]cc2CN(C)CCN)ccc1F [Compound 142]	273		2.1			
CCN(CC)C(=O)c1ccc(-c2n[nH]cc2CN(C)CCN)cc1 [Compound 143]	1750		> 20			
CC(C)Oc1ccc(-c2c[nH]nc2CN(C)CCN)cc1F [Compound 144]	171		0.284			
CNCCN(C)Cc1c[nH]nc1-c1ccc(OCC2CCOCC2)cc1 [Compound 284]	90.2	< 100	0.856	< 3		
CNCCN(C)Cc1c[nH]nc1-c1ccc(OCC2CCOC2)cc1 (centres unmarked) [Compound 285]	69.2	< 100	0.62	< 3		
CNCCN(C)Cc1c[nH]nc1-c1ccc(OC(CO)C(C)C)cc1 (centres unmarked) [Compound 286]	55.3	< 100	0.812	< 3		
CCC(CC)Oc1ccc(-c2n[nH]cc2CN(C)CCNC)cc1 [Compound 290]	10.6	< 100	0.021	< 3		
CNCCN(C)Cc1c[nH]nc1-c1ccc(OC2CCOCC2)c(F)c1 [Compound 291]	25.4	< 100			< 3	0.154
CNCCN(C)Cc1c[nH]nc1-c1ccc(OC2CCOCC2)c(Cl)c1 [Compound 292]	8.52	< 100	0.098	< 3		
CNCCN(C)Cc1c[nH]nc1-c1ccc(NC(C)C)cc1 [Compound 295]	33.7	< 100	0.116	< 3		
CNCCN(C)Cc1c[nH]nc1-c1ccc(NCC(C)C)cc1 [Compound 296]	57.6	< 100	0.478	< 3		
CNCCN(C)Cc1c[nH]nc1-c1ccc(Oc2ccccc2)c(F)c1 [Compound 297]	6.68	< 100	0.08	< 3		
CNCCN(C)Cc1c[nH]nc1-c1ccc(OCC2CC2)c(F)c1 [Compound 298]	16.3	< 100	0.104	< 3		
CNCCN(C)Cc1c[nH]nc1-c1ccc(N(C)C(C)C)cc1 [Compound 300]	64.7	< 100	0.611	< 3		
CNCCN(C)Cc1c[nH]nc1-c1ccc(OC2CC2)c(F)c1 [Compound 301]	23.5	< 100	0.128	< 3		
CNCCN(C)Cc1c[nH]nc1-c1ccc(Oc2ncccn2)cc1 [Compound 302]	123	101 to 1000	0.976	< 3		
CNCCN(C)Cc1c[nH]nc1-c1ccc(Oc2cncnc2)cc1 [Compound 303]	54.7	< 100	0.712	< 3		
CNCCN(C)Cc1c[nH]nc1-c1ccc(OC2CCC2)c(F)c1 [Compound 305]	18.3	< 100	0.193	< 3		
CCC(COC)Oc1ccc(-c2n[nH]cc2CN(C)CCNC)cc1 (centres unmarked) [Compound 310]	17	< 100	0.032	< 3		
CNCCN(C)Cc1c[nH]nc1-c1ccc(OC(COC)C(C)C)cc1 (centres unmarked) [Compound 311]	50.9	< 100	0.227	< 3		
CNCCN(C)Cc1c[nH]nc1-c1ccc(Oc2ccncn2)cc1 [Compound 312]	90.9	< 100	0.824	< 3		
CNCCN(C)Cc1c[nH]nc1-c1ccc(C(C)(C)COC)cc1 [Compound 313]	60.1	< 100	0.894	< 3		
CNCCN(C)Cc1c[nH]nc1-c1ccc(OC(COC)CC(C)C)cc1 (centres unmarked) [Compound 314]	110	101 to 1000	0.51	< 3		
CNCCN(C)Cc1c[nH]nc1-c1ccc(OC(COC)COC)cc1 [Compound 316]	43	< 100	0.063	< 3		
